Results from PMC8222713, “Variation of Two S3b Residues in KV4.1–4.3 Channels Underlies Their Different Modulations by Spider Toxin κ-LhTx-1” (Frontiers in Pharmacology, 2021).
Where a SMILES comes first, the peptide text is derived from it. Bridges are numbered along the chain shown (N, C = ends).

How the values were obtained:
KV4.1/K283D mutant = experiment: Whole-cell patch clamp, KV4.1/K283D in CHO-K1 cells; type: cell-based, mouse
Protocol: (§1) The cDNA of hKV1.1, hKV1.3, rKV1.4, hKV1.5, rKV2.1, hKV3.1–3.4, mKV4.1, rKV4.2, and rKV4.3 were subcloned in the eukaryotic expression vector pCDNA3.1 or pCMV-blank. Channel mutants were made by a site-directed mutation method. Briefly, a pair of oppositely directed primers with 15 bp overlap at their 5′ ends and the designed mutation site were used to amplify the parental channel plasmid, then the PCR mix was treated with DpnI to remove the template. 10 μL digestion mix was directly used to transform 100 μL DH5α chemical competent cells. The correct mutation made by this procedure was finally confirmed by DNA sequencing. CHO-K1 cells (ATCC® CCL-61™) were grown in DMEM-F12 mixed medium (1:1) supplemented with 10% FBS and maintained in standard conditions (saturated humidity, 37°C, 5% CO2). Channel plasmid was co-transfected with pEGFP-N1 (encodes the green fluoresence protein) into CHO-K1 cells using lipofectamine 2000 following the manufacturer’s instructions. 4–6 h after transfection, cells were seeded onto poly-lysine (PLL) coated coverslips, and 24–36 h later, transfected cells were ready for patch-clamp analysis. It should be note that KV4.2 and its mutants were also co-expressed with hKChIP1 to promote their functional expressions.
(§2) Whole-cell patch clamp recording was performed in an electrophysiology platform equipped with MultiClamp 700B amplifier and Axon Digidata 1550 AD/DA convertor (Axon Instruments, Irvine, CA, United States). Data were acquired using the pClamp software (Axon Instruments, Irvine, CA, United States). All experiments were performed at room temperature. The bath solution contains (in mM): 140 NaCl, 5 KCl, 1 MgCl2, 2 CaCl2, 10 glucose, and 10 HEPES (pH = 7.3). The pipette solution contains (in mM): 140 KCl, 2.5 MgCl2, 11 EGTA, and 10 HEPES (pH = 7.3). Series resistance was kept below 10 MΩ and compensated to 80%. The concentration–response curves were fitted by a Hill logistic equation to estimate the potency (IC50) of the toxin. The whole cell conductance (G) at each depolarizing voltage (V) was determined using the equation: G = I/(V−Vrev), where I and Vrev represents the current amplitude and the reversal potential, respectively. In the present study, Vrev for K^+ current is determined to be −85.61 mV using the Nernst equation. G-V curve was obtained by plotting the normalized G as a function of V and fitted by the Boltzmann equation: y = 1/{1 + exp [(Va−V)/K]}, in which Va, V, and K represents half-maximum activation voltage, test voltage and slope factor, respectively. The steady-state fast inactivation of KV4 channels was measured using a classical two-pulses protocol: cell was held at −120 mV, and a train of conditional voltages (−120–40 mV, in 10 mV increment, 1,000 ms) were applied to induce channel inactivation, followed by a +60 mV test pulse (300 ms) to assess the proportion of non-inactivated channels; the sweep interval was set to 10 s. Currents at the test pulse (I) were normalized to the maximum value (Imax) and plotted as a function of the conditional voltage (V), the curve was fitted by the Boltzmann equation: I/Imax = A + (1−A)/{1 + exp [(V−Vh)/K]}, where Vh is the half-maximum inactivation voltage, A represents the minimum channel availability, and K is the slope factor. Gating currents of KV4.1–4.3 channels were measured as previously reported ([Tilley et al., 2019]). Briefly, the ionic pore currents were abolished by replacing K^+ with NMDG^+ in the pipette solution, and 10 µM Cs^+ was present in the bath solution to occupy the selectivity filter of KV channels to prevent decay of the gating currents during recording.
(§3) Data were presented as MEAN ± SEM, n represents the number of separate experimental cells. Data were analyzed using the software Clampfit 10.5 (Axon Instruments, Irvine, CA, United States), Graphpad Prism 5.01 (GraphPad Software, La Jolla, CA, United States) and Excel 2010 (Microsoft Corporation, Redmond, WA, United States). […]

KV4.2 channel (rKV4.2) = target: T1, KV4.2 channel (rKV4.2) (Rattus norvegicus, UniProt Q63881); experiment: Whole-cell patch clamp, KV4.2 (with hKChIP1) in CHO-K1 cells; type: cell-based
T1 construct: expressed in transfected cells; host or cells: CHO-K1 (transient, co-transfected with pEGFP-N1 and hKChIP1)
T1 sequence (Q63881 1-630): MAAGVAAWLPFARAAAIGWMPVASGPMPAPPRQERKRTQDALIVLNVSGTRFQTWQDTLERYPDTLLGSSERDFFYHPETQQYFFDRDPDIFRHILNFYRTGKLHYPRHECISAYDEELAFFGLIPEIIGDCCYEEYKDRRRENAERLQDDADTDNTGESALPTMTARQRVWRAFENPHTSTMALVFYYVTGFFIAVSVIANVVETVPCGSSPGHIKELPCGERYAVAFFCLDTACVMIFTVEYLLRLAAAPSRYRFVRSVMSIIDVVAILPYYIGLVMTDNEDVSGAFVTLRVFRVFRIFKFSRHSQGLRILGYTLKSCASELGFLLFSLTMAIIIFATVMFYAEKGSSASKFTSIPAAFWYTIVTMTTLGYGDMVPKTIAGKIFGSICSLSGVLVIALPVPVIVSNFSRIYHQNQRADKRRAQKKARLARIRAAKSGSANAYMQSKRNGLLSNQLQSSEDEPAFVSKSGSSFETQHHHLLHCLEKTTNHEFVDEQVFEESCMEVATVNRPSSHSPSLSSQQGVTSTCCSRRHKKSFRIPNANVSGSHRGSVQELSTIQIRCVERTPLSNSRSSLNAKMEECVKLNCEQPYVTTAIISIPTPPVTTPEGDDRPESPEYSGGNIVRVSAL
T1 sequence (Q9NZI2 1-227 partner): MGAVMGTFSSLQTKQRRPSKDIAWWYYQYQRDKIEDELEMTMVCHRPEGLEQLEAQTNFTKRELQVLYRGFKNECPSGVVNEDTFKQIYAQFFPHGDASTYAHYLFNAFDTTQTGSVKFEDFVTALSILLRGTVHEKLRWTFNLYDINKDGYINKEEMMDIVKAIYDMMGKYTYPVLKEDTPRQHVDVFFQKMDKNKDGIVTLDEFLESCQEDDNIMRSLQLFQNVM
Protocol: as §1, §2, §3

KV1.1 channel (hKV1.1) = experiment: Whole-cell patch clamp selectivity, KV1.1; type: cell-based, human; details: KV1.1, 10 µM, n = 5
Protocol: The cDNA of hKV1.1, hKV1.3, rKV1.4, hKV1.5, rKV2.1, hKV3.1–3.4, mKV4.1, rKV4.2, and rKV4.3 were subcloned in the eukaryotic expression vector pCDNA3.1 or pCMV-blank. Channel mutants were made by a site-directed mutation method. Briefly, a pair of oppositely directed primers with 15 bp overlap at their 5′ ends and the designed mutation site were used to amplify the parental channel plasmid, then the PCR mix was treated with DpnI to remove the template. 10 μL digestion mix was directly used to transform 100 μL DH5α chemical competent cells. The correct mutation made by this procedure was finally confirmed by DNA sequencing. […] 4–6 h after transfection, cells were seeded onto poly-lysine (PLL) coated coverslips, and 24–36 h later, transfected cells were ready for patch-clamp analysis. […]
Whole-cell patch clamp recording was performed in an electrophysiology platform equipped with MultiClamp 700B amplifier and Axon Digidata 1550 AD/DA convertor (Axon Instruments, Irvine, CA, United States). […] The whole cell conductance (G) at each depolarizing voltage (V) was determined using the equation: G = I/(V−Vrev), where I and Vrev represents the current amplitude and the reversal potential, respectively. In the present study, Vrev for K^+ current is determined to be −85.61 mV using the Nernst equation. […] Gating currents of KV4.1–4.3 channels were measured as previously reported ([Tilley et al., 2019]). […]

[1] = 10 μM κ-LhTx-1, G-V, mean ± SEM, n = 5
[2] = 10 μM κ-LhTx-1, two-pulse protocol, mean ± SEM, n = 5
[3] = 10 μM κ-LhTx-1, KV4.2, G-V, mean ± SEM, n = 8
[4] = 10 μM κ-LhTx-1, KV4.2, two-pulse protocol, mean ± SEM, n = 6

CC[C@H](C)[C@@H]1NC(=O)[C@H](CCC(N)=O)NC(=O)[C@@H]2CSSC[C@@H]3NC(=O)[C@H](CC(C)C)NC(=O)[C@H](CC(N)=O)NC(=O)[C@H](CCSC)NC(=O)[C@H](Cc4c[nH]c5ccccc45)NC(=O)[C@H](CO)NC(=O)[C@H](C)NC(=O)[C@@H](NC(=O)[C@H](CCC(=O)O)NC(=O)[C@H](CCC(N)=O)NC(=O)[C@H](C)NC(=O)[C@H](CC(=O)O)NC(=O)[C@@H](N)CCC(=O)O)CSSC[C@H](NC(=O)[C@H](CSSC[C@@H](C(=O)N[C@@H](CCCCN)C(=O)N[C@@H](Cc4ccc(O)cc4)C(=O)N[C@@H](CCCCN)C(=O)N[C@@H](CC(C)C)C(N)=O)NC(=O)[C@H](Cc4c[nH]c5ccccc45)NC1=O)NC(=O)[C@H](CCCCN)NC(=O)[C@H](CCCCN)NC(=O)[C@H](CCC(=O)O)NC(=O)CNC3=O)C(=O)N[C@@H](CCC(=O)O)C(=O)NCC(=O)N[C@@H](Cc1ccc(O)cc1)C(=O)N[C@@H](C(C)C)C(=O)N2 [κ-LhTx-1] (H-EDAQECASWMNLCGEKKCCEGYVCQIWCKYKL-NH2; disulfide 6-19, 13-24, 18-28 (inferred); N-terminus and C-terminus assumed)
∆Va and inhi%(min) vs wild-type KV4.1 (KV4.1/K283D mutant; 10 μM): unchanged ∆Va and inhi%(min)
Va (steady-state activation) (KV4.1/K283D mutant; [1]): 91.34 ± 3.47 mV
k, slope factor (steady-state activation) (KV4.1/K283D mutant; [1]): 17.49 ± 1.57 mV
Vh (steady-state inactivation) (KV4.1/K283D mutant; [2]): -36.39 ± 3.03 mV
k, slope factor (steady-state inactivation) (KV4.1/K283D mutant; [2]): 19.23 ± 1.48 mV
potency vs wild-type KV4.1 (KV4.1/K283D mutant; +30 mV, n = 5): only slightly reduced κ-LhTx-1 potency
∆Va (steady-state activation) (KV4.1/K283D mutant; Va shift by 10 μM κ-LhTx-1 vs control, mean ± SEM): 103.10 ± 4.22 mV
∆Vh (steady-state inactivation) (KV4.1/K283D mutant; Vh shift by 10 μM κ-LhTx-1 vs control, mean ± SEM): 24.74 ± 3.63 mV
Va (steady-state activation) (KV4.2 channel (rKV4.2); [3]): 30.24 ± 1.82 mV
k, slope factor (steady-state activation) (KV4.2 channel (rKV4.2); [3]): 21.99 ± 0.42 mV
Vh (steady-state inactivation) (KV4.2 channel (rKV4.2); [4]): -69.67 ± 1.87 mV
k, slope factor (steady-state inactivation) (KV4.2 channel (rKV4.2); [4]): 7.22 ± 0.26 mV
reversibility of inhibition (KV4.2 channel (rKV4.2); KV4.2): in a reversible manner
voltage-dependence of inhibition (KV4.2 channel (rKV4.2); KV4.2, 10 µM, inhibition ratio at each depolarizing voltage, n = 5–8): decreased quickly with the increment of the depolarizing voltage
I-V relationship shift (KV4.2 channel (rKV4.2); KV4.2, 10 µM, n = 5–8): only a small shift
current inhibition at Va (KV4.2 channel (rKV4.2); KV4.2 at Va depolarizing voltage): almost fully inhibited
∆Va (steady-state activation) (KV4.2 channel (rKV4.2); Va shift by 10 μM κ-LhTx-1 vs control, KV4.2, mean ± SEM): 39.52 ± 2.55 mV
effect on currents (KV1.1 channel (hKV1.1)): did not remarkably affect the currents
